Assays:
Assay type in all cases: biochemical
human SIRT1 = target: T1, human SIRT1 (Homo sapiens, UniProt Q96EB6); assay: Fluorescence-based sirtuin subtype selectivity assay, SIRT1, single dose 50 μM; details: 50 μM compound; mean, n = 2
T1 construct: purchased Reaction Biology Corporation (Malvern, USA), contract assay
T1 sequence (Q96EB6 1-747): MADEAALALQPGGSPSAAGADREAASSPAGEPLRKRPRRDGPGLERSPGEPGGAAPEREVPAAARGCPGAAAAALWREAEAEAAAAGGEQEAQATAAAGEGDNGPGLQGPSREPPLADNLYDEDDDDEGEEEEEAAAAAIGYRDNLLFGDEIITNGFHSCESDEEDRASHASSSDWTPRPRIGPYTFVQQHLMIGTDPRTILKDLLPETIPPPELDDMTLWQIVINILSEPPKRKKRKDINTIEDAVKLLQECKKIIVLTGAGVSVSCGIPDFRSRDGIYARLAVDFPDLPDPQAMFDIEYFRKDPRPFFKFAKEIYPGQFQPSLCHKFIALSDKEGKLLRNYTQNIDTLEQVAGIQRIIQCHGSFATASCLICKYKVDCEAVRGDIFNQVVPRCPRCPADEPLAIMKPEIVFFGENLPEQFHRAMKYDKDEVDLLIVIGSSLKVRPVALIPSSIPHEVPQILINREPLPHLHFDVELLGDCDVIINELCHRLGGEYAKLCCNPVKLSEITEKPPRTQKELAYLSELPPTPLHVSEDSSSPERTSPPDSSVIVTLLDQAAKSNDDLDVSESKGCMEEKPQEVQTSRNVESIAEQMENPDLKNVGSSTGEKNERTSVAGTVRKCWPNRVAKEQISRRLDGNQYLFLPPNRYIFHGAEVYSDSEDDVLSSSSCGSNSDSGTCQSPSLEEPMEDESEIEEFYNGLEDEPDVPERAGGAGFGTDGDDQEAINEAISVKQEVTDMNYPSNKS
Protocol: (§1) IC50 values against SIRT2 are given as mean with standard deviations (n = 3). Inhibition percentages at 50 μM for SIRT1, 3 and 5 are given as mean without standard deviations (n = 2)
(§2) The determination of subtype selectivity against SIRT1, 3 and 5 was performed by measuring the residual enzyme activity after treatment with the corresponding inhibitor at a fixed concentration of 50 μM and subsequent calculation of the percentage inhibition.
(§3) The determination of inhibitory activity on the corresponding sirtuin enzymes was carried out based on a fluorescence-based assay commissioned by Reaction Biology Corporation (Malvern, USA) following an internal experimental protocol. Test substances were prepared in DMSO, delivered into the respective enzyme mixture (prepared with reaction buffer: Tris-HCl, pH = 8) and incubated for 10 minutes at 30 °C. Subsequently the substrate mixture (NAD^+ and a 7-amino-4-methylcoumarin-based fluorogenic peptide substrate) was added to initiate the deacetylation reaction. After 2 hours incubation at 30 °C, 2 mM nicotinamide (universal sirtuin inhibitor, to stop the reaction) and protease-based developer (to generate fluorescence by the cleavage of 7-amino-4-methylcoumarin) was added. At 30 °C 1 hour later, the respective fluorescence was measured (extinction/emission = 360 nm/460 nm). The inhibitory effect of the test compounds is indirectly proportional to the amount of converted fluorescent substrate standardized as 100% activity of the control without inhibitor. The test substances were tested in 10-dose IC50 triplicate mode, with 3-fold serial dilution starting at 50 μM final reaction concentration and if necessary, starting at 100 μM. For each serially diluted replicate of the triplicate, an IC50 value was determined by sigmoidal curve fitting, resulting in three IC50 values, from which the mean and corresponding standard deviation were subsequently calculated. Data processing was performed based on Prism 8.0.2 software (GraphPad Software, Boston, USA). Subtype selectivity on SIRT1, SIRT3 and SIRT5 was evaluated in a single dose duplicate mode at 50 μM final test compound concentration according to previous outlined internal protocol of Reaction Biology Corporation by determining the enzyme activity of the respective sirtuins in % (no inhibitor control as 100% activity).

human SIRT3 = target: T2, human SIRT3 (Homo sapiens, UniProt Q9NTG7); assay: Fluorescence-based sirtuin subtype selectivity assay, SIRT3, single dose 50 μM; details: 50 μM compound; mean, n = 2
T2 construct: purchased Reaction Biology Corporation (Malvern, USA), contract assay
T2 sequence (Q9NTG7 1-399): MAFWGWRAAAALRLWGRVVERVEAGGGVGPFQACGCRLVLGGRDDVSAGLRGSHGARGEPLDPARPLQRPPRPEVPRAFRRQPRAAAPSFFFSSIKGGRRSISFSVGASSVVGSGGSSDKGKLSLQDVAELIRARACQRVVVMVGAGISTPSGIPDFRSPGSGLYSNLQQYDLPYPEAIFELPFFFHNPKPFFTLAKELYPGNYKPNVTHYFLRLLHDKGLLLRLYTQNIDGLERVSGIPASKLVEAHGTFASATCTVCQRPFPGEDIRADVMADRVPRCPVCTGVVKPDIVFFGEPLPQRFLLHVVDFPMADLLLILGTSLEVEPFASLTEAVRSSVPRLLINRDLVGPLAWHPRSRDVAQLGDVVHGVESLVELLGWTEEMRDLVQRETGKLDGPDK
Protocol: as §1, §2, §3

human SIRT5 = target: T3, human SIRT5 (Homo sapiens, UniProt Q9NXA8); assay: Fluorescence-based sirtuin subtype selectivity assay, SIRT5, single dose 50 μM; details: 50 μM compound; mean, n = 2
T3 construct: purchased Reaction Biology Corporation (Malvern, USA), contract assay
T3 sequence (Q9NXA8 37-310): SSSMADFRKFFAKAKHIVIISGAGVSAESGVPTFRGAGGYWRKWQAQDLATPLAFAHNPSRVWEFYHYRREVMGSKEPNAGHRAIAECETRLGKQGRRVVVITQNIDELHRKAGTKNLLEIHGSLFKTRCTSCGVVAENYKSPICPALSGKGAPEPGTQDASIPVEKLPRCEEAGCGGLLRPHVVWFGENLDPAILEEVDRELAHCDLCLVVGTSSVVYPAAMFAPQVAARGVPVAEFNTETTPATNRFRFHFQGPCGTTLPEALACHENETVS
Protocol: as §1, §2, §3

SIRT2 = target: T4, SIRT2 (Homo sapiens, UniProt Q8IXJ6); assay: Fluorescence-based SIRT2 deacetylation inhibition assay (Reaction Biology Corporation); parameters: purchased Reaction Biology Corporation (Malvern, USA), contract assay; details: for IC50: fluorogenic peptide of p53 residues 379–382 (RHKK(Ac)-Fl), mean with standard deviation, n = 3
T4 sequence (Q8IXJ6 1-389): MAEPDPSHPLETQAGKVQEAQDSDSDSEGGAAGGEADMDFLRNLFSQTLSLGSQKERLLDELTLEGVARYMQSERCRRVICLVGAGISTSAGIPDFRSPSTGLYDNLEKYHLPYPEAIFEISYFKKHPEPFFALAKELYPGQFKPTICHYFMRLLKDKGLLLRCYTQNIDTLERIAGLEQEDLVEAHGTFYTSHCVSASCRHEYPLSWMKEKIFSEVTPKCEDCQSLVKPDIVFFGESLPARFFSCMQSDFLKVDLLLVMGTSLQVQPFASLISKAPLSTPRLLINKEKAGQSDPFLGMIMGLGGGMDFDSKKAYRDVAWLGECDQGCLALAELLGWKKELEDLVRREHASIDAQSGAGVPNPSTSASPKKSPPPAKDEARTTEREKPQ
Protocol: The determination of SIRT2 inhibitory activity was performed by Reaction Biology Corporation (Malvern, USA) with a fluorescence-based assay utilizing the fluorogenic peptide of p53 residues 379–382 (RHKK(Ac)-Fl). […]. […] […]. On the contrary, we observed a significant increase in potency by the introduction of halogens at the R^2 position (compounds 29–31), highlighting the importance of the position of the functional group modifications. […]. […] Additional factors such as the atomic radius and thus steric requirements of these halogens may also play a significant role in the increase in potency, where the smaller chlorine atom may experience less steric effects upon binding at the active site compared to the larger bromine and iodine atoms. […]. […] IC50 values against SIRT2 are given as mean with standard deviations (n = 3). Inhibition percentages at 50 μM for SIRT1, 3 and 5 are given as mean without standard deviations (n = 2)
as §3

SMILES | inhibition at 50 µM (human SIRT1) | inhibition at 50 µM (human SIRT3) | inhibition at 50 µM (human SIRT5) | IC50 (SIRT2) | Inhibition of SIRT1 in %@50 μM (human SIRT1) | Fold increase in SIRT2 potency compared to lead structure (SIRT2; 29 vs 24a, 46 vs SirReal2)
Cc1cc(C)nc(SCC(=O)Nc2cccc(COc3ccc(NC(=O)c4cnn(C)c4)c(Br)c3)c2)n1 [Compound 30, N-(2-Bromo-4-((3-(2-((4,6-dimethylpyrimidin-2-yl)thio)acetamido)benzyl)oxy)phenyl)-1-methyl-1H-pyrazole-4-carboxamide] | 4% | 43% | 1% | 54 ± 7 nM |  | 
Cc1cc(C)nc(SCC(=O)Nc2ncc(Cc3cccc4ccc(CC#N)cc34)s2)n1 [Compound 47, N-(5-((7-(Cyanomethyl)naphthalen-1-yl)methyl)thiazol-2-yl)-2-((4,6-dimethylpyrimidin-2-yl)thio)acetamide] |  | 15% | 2% | 235 ± 19 nM | n.i. | 
Cc1cc(C)nc(SCC(=O)Nc2cccc(COc3ccc(NC(=O)c4cnn(C)c4)cc3B(O)O)c2)n1 [Compound 13, (2-((3-(2-((4,6-Dimethylpyrimidin-2-yl)thio)acetamido)benzyl)oxy)-5-(1-methyl-1H-pyrazole-4-carboxamido)phenyl)boronic acid] | 29% | 5% | 10% | 294 ± 17 nM |  | 
Cc1cc(C)nc(SCC(=O)Nc2cccc(COc3ccc(NC(=O)c4cnn(C)c4)c(I)c3)c2)n1 [Compound 31, N-(4-((3-(2-((4,6-Dimethylpyrimidin-2-yl)thio)acetamido)benzyl)oxy)-2-iodophenyl)-1-methyl-1H-pyrazole-4-carboxamide] | 5% | 22% | 12% | 29 ± 2 nM |  | 
Cc1cc(C)nc(SCC(=O)Nc2ncc(Cc3cccc4ccc(C#N)cc34)s2)n1 [Compound 46, N-(5-((7-Cyanonaphthalen-1-yl)methyl)thiazol-2-yl)-2-((4,6-dimethylpyrimidin-2-yl)thio)acetamide] | 6% | 9% | 8% | 122 ± 8 nM |  | 2 fold
Cc1cc(C)nc(SCC(=O)Nc2cccc(COc3ccc(NC(=O)c4cnn(C)c4)c(B(O)O)c3)c2)n1 [Compound 33, (5-((3-(2-((4,6-Dimethylpyrimidin-2-yl)thio)acetamido)benzyl)oxy)-2-(1-methyl-1H-pyrazole-4-carboxamido)phenyl)boronic acid] | 71% | 24% | 14% | 202 ± 6 nM |  | 
Cc1cc(C)nc(SCC(=O)Nc2cccc(COc3ccc(NC(=O)c4cnn(C)c4)c(C#N)c3)c2)n1 [Compound 34, N-(2-Cyano-4-((3-(2-((4,6-dimethylpyrimidin-2-yl)thio)acetamido)benzyl)oxy)phenyl)-1-methyl-1H-pyrazole-4-carboxamide] | 23% | 31% | 4% | 91 ± 7 nM |  | 
Cc1cc(C)nc(SCC(=O)Nc2cccc(COc3ccc(NC(=O)c4cnn(C)c4)c(C=O)c3)c2)n1 [Compound 32, N-(4-((3-(2-((4,6-Dimethylpyrimidin-2-yl)thio)acetamido)benzyl)oxy)-2-formylphenyl)-1-methyl-1H-pyrazole-4-carboxamide] |  | 7% | 6% | 184 ± 9 nM | n.i. | 
Cc1cc(C)nc(SCC(=O)Nc2ncc(Cc3cccc4ccc(C=O)cc34)s2)n1 [Compound 49, 2-((4,6-Dimethylpyrimidin-2-yl)thio)-N-(5-((7-formylnaphthalen-1-yl)methyl)thiazol-2-yl)acetamide] | 11% | 13% | 21% | 356 ± 42 nM |  | 
Cc1cc(C)nc(SCC(=O)Nc2cccc(COc3ccc(NC(=O)c4cnn(C)c4)cc3C#N)c2)n1 [Compound 14, N-(3-Cyano-4-((3-(2-((4,6-dimethylpyrimidin-2-yl)thio)acetamido)benzyl)oxy)phenyl)-1-methyl-1H-pyrazole-4-carboxamide] | 6% | 35% | 2% | 125 ± 18 nM |  | 
Cc1cc(C)nc(SCC(=O)Nc2ncc(Cc3cccc4ccc(B(O)O)cc34)s2)n1 [Compound 48, (8-((2-(2-((4,6-Dimethylpyrimidin-2-yl)thio)acetamido)thiazol-5-yl)methyl)naphthalen-2-yl)boronic acid] | 19% | 12% | 23% | 235 ± 36 nM |  | 
Cc1cc(C)nc(SCC(=O)Nc2cccc(COc3ccc(NC(=O)c4cnn(C)c4)cc3Br)c2)n1 [Compound 11, N-(3-Bromo-4-((3-(2-((4,6-dimethylpyrimidin-2-yl)thio)acetamido)benzyl)oxy)phenyl)-1-methyl-1H-pyrazole-4-carboxamide] |  | 24% | 13% | 81 ± 10 nM | n.i. | 

From paper PMC12412615, “Tailored SirReal-type inhibitors enhance SIRT2 inhibition through ligand stabilization and disruption of NAD^+ co-factor binding” (RSC Medicinal Chemistry, 2025)
